# Tests used:
# Assay in all cases: relative viability (nuclei count vs DMSO), 5 days (fraction); higher = more cells survive
# [1] = tested on: PC-3 [JPC-3]
# How it was run: (§1)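 Lung cancer cell lines were pin-tool dosed in 1536-well plates on the day after seeding, with either a lone drug or a fixed anchor-drug dose plus five library-drug doses (not always all listed) in √10 steps. Nuclei were counted on 4× images after 5 days. Relative viability is the ratio of treated-well to vehicle-well nuclei counts, with each value a median of duplicate plates.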
# [2] = tested on: HCC-15
# How it was run: as §1
# [3] = tested on: UMC-11
# How it was run: as §1
# [4] = tested on: LC-2-ad
# How it was run: as §1
# [5] = tested on: ChaGo-K-1
# How it was run: as §1
# [6] = tested on: NCI-H2087
# How it was run: as §1
# [7] = tested on: NCI-H838
# How it was run: as §1
# [8] = tested on: H3255
# How it was run: as §1
# [9] = tested on: NCI-H1666
# How it was run: as §1
# [10] = tested on: NCI-H661
# How it was run: as §1
# [11] = tested on: LXF-289
# How it was run: as §1
# [12] = tested on: LK-2
# How it was run: as §1
# [13] = tested on: NCI-H650
# How it was run: as §1
# [14] = tested on: NCI-H358
# How it was run: as §1
# [15] = tested on: LCLC-97TM1
# How it was run: as §1
# [16] = tested on: NCI-H1651
# How it was run: as §1
# [17] = tested on: NCI-H596
# How it was run: as §1
# [18] = tested on: SK-MES-1
# How it was run: as §1
# [19] = tested on: BEN
# How it was run: as §1
# [20] = tested on: NCI-H322M
# How it was run: as §1
# [21] = tested on: NCI-H1944
# How it was run: as §1
# [22] = tested on: HCC-78
# How it was run: as §1
# [23] = tested on: LU99A
# How it was run: as §1
smiles,measurement,setting,value
C[C@@H]1CN(CC(=O)Nc2ccc3c(c2)Cc2cccc(-c4cc(=O)cc(N5CCOCC5)o4)c2S3)C[C@H](C)O1 + C[C@@H](Oc1cc(-c2cnn(C3CCNCC3)c2)cnc1N)c1c(Cl)ccc(F)c1Cl [Crizotinib] (partner 1 µM),relative viability,[1]; first compound 0.04 µM,0.947
same,relative viability,[1]; first compound 0.1265 µM,0.936
same,relative viability,[1]; first compound 0.4 µM,0.971
same,relative viability,[1]; first compound 4 µM,0.962
same,relative viability,[2]; first compound 0.04 µM,0.8
same,relative viability,[2]; first compound 0.1265 µM,0.75
same,relative viability,[2]; first compound 0.4 µM,0.831
same,relative viability,[2]; first compound 4 µM,0.734
same,relative viability,[3]; first compound 0.04 µM,0.747
same,relative viability,[3]; first compound 0.1265 µM,0.644
same,relative viability,[3]; first compound 0.4 µM,0.613
same,relative viability,[3]; first compound 4 µM,0.385
same,relative viability,[4]; first compound 0.04 µM,0.386
same,relative viability,[4]; first compound 0.1265 µM,0.455
same,relative viability,[4]; first compound 0.4 µM,0.434
same,relative viability,[4]; first compound 4 µM,0.43
same,relative viability,[5]; first compound 0.1265 µM,1.09
same,relative viability,[5]; first compound 0.4 µM,1.21
same,relative viability,[5]; first compound 4 µM,1.13
same,relative viability,[6]; first compound 0.04 µM,0.936
same,relative viability,[6]; first compound 0.1265 µM,0.929
same,relative viability,[6]; first compound 0.4 µM,0.895
same,relative viability,[6]; first compound 4 µM,0.748
same,relative viability,[7]; first compound 0.04 µM,0.886
same,relative viability,[7]; first compound 0.1265 µM,0.77
same,relative viability,[7]; first compound 0.4 µM,0.755
same,relative viability,[7]; first compound 4 µM,0.616
same,relative viability,[8]; first compound 0.04 µM,0.824
same,relative viability,[8]; first compound 0.1265 µM,0.785
same,relative viability,[8]; first compound 0.4 µM,0.814
same,relative viability,[8]; first compound 4 µM,0.719
same,relative viability,[9]; first compound 0.04 µM,0.928
same,relative viability,[9]; first compound 0.1265 µM,1.05
same,relative viability,[9]; first compound 0.4 µM,1.11
same,relative viability,[9]; first compound 4 µM,0.661
same,relative viability,[10]; first compound 0.04 µM,1.07
same,relative viability,[10]; first compound 0.1265 µM,1.01
same,relative viability,[10]; first compound 0.4 µM,1.02
same,relative viability,[10]; first compound 4 µM,0.885
same,relative viability,[11]; first compound 0.04 µM,0.777
same,relative viability,[11]; first compound 0.1265 µM,0.877
same,relative viability,[11]; first compound 0.4 µM,0.814
same,relative viability,[11]; first compound 4 µM,0.799
same,relative viability,[12]; first compound 0.1265 µM,0.198
same,relative viability,[12]; first compound 0.4 µM,0.242
same,relative viability,[12]; first compound 4 µM,0.191
same,relative viability,[13]; first compound 0.04 µM,0.433
same,relative viability,[13]; first compound 0.1265 µM,0.753
same,relative viability,[13]; first compound 0.4 µM,0.727
same,relative viability,[13]; first compound 4 µM,0.602
same,relative viability,[14]; first compound 0.04 µM,0.456
same,relative viability,[14]; first compound 0.1265 µM,0.465
same,relative viability,[14]; first compound 0.4 µM,0.718
same,relative viability,[14]; first compound 4 µM,0.365
same,relative viability,[15]; first compound 0.1265 µM,0.396
same,relative viability,[15]; first compound 0.4 µM,0.287
same,relative viability,[15]; first compound 4 µM,0.337
same,relative viability,[16]; first compound 0.04 µM,0.842
same,relative viability,[16]; first compound 0.1265 µM,0.859
same,relative viability,[16]; first compound 0.4 µM,0.903
same,relative viability,[16]; first compound 4 µM,0.882
same,relative viability,[17]; first compound 0.04 µM,0.934
same,relative viability,[17]; first compound 0.1265 µM,0.928
same,relative viability,[17]; first compound 0.4 µM,0.983
same,relative viability,[17]; first compound 4 µM,0.964
same,relative viability,[18]; first compound 0.04 µM,1.08
same,relative viability,[18]; first compound 0.1265 µM,0.991
same,relative viability,[18]; first compound 0.4 µM,0.917
same,relative viability,[18]; first compound 4 µM,0.774
same,relative viability,[19]; first compound 0.04 µM,0.812
same,relative viability,[19]; first compound 0.1265 µM,0.82
same,relative viability,[19]; first compound 0.4 µM,0.964
same,relative viability,[19]; first compound 4 µM,0.95
same,relative viability,[20]; first compound 0.04 µM,0.599
same,relative viability,[20]; first compound 0.1265 µM,0.863
same,relative viability,[20]; first compound 0.4 µM,1.08
same,relative viability,[20]; first compound 4 µM,0.959
same,relative viability,[21]; first compound 0.1265 µM,1.09
same,relative viability,[21]; first compound 0.4 µM,1.22
same,relative viability,[21]; first compound 4 µM,1.16
same,relative viability,[22]; first compound 0.04 µM,0.344
same,relative viability,[22]; first compound 0.1265 µM,0.349
same,relative viability,[22]; first compound 0.4 µM,0.308
same,relative viability,[22]; first compound 4 µM,0.348
same,relative viability,[23]; first compound 0.04 µM,0.523
same,relative viability,[23]; first compound 0.1265 µM,0.636
same,relative viability,[23]; first compound 0.4 µM,0.64
same,relative viability,[23]; first compound 4 µM,0.569
CC(C)Oc1cc(Nc2nc(N[C@@H](C)c3ccc(F)cn3)ncc2Cl)n[nH]1 [AZ23] + CS(=O)(=O)N1CCN(Cc2cc3nc(-c4cccc5[nH]ncc45)nc(N4CCOCC4)c3s2)CC1 [Pictilisib] (partner 1 µM),relative viability,[1]; first compound 0.01 µM,0.807
same,relative viability,[1]; first compound 0.03162 µM,0.833
same,relative viability,[1]; first compound 0.3162 µM,0.807
same,relative viability,[2]; first compound 0.01 µM,0.968
same,relative viability,[2]; first compound 0.03162 µM,0.73
same,relative viability,[2]; first compound 0.3162 µM,0.782
same,relative viability,[3]; first compound 0.01 µM,0.762
same,relative viability,[3]; first compound 0.03162 µM,0.963
same,relative viability,[3]; first compound 0.3162 µM,0.818
same,relative viability,[4]; first compound 0.01 µM,0.386
same,relative viability,[4]; first compound 0.03162 µM,0.574
same,relative viability,[4]; first compound 0.3162 µM,0.357
same,relative viability,[5]; first compound 0.01 µM,0.658
same,relative viability,[5]; first compound 0.03162 µM,1.18
same,relative viability,[5]; first compound 0.3162 µM,0.661
same,relative viability,[6]; first compound 0.01 µM,0.867
same,relative viability,[6]; first compound 0.03162 µM,1.06
same,relative viability,[6]; first compound 0.3162 µM,0.964
same,relative viability,[7]; first compound 0.01 µM,0.467
same,relative viability,[7]; first compound 0.03162 µM,0.464
same,relative viability,[7]; first compound 0.3162 µM,0.51
same,relative viability,[8]; first compound 0.01 µM,0.484
same,relative viability,[8]; first compound 0.03162 µM,0.519
same,relative viability,[8]; first compound 0.3162 µM,0.494
same,relative viability,[9]; first compound 0.01 µM,0.51
same,relative viability,[9]; first compound 0.03162 µM,0.559
same,relative viability,[9]; first compound 0.3162 µM,0.417
same,relative viability,[10]; first compound 0.01 µM,0.402
same,relative viability,[10]; first compound 0.03162 µM,0.446
same,relative viability,[10]; first compound 0.3162 µM,0.423
same,relative viability,[11]; first compound 0.01 µM,0.969
same,relative viability,[11]; first compound 0.03162 µM,0.818
same,relative viability,[11]; first compound 0.3162 µM,0.788
same,relative viability,[12]; first compound 0.03162 µM,0.499
same,relative viability,[12]; first compound 0.3162 µM,0.59
same,relative viability,[13]; first compound 0.01 µM,0.841
same,relative viability,[13]; first compound 0.03162 µM,0.869
same,relative viability,[13]; first compound 0.3162 µM,1.1
same,relative viability,[14]; first compound 0.01 µM,0.404
same,relative viability,[14]; first compound 0.03162 µM,0.329
same,relative viability,[14]; first compound 0.3162 µM,0.324
same,relative viability,[15]; first compound 0.01 µM,0.134
same,relative viability,[15]; first compound 0.03162 µM,0.225
same,relative viability,[15]; first compound 0.3162 µM,0.157
same,relative viability,[16]; first compound 0.01 µM,0.443
same,relative viability,[16]; first compound 0.03162 µM,0.542
same,relative viability,[16]; first compound 0.3162 µM,0.665
same,relative viability,[17]; first compound 0.01 µM,0.359
same,relative viability,[17]; first compound 0.03162 µM,0.342
same,relative viability,[17]; first compound 0.3162 µM,0.397
same,relative viability,[18]; first compound 0.01 µM,0.329
same,relative viability,[18]; first compound 0.03162 µM,0.358
same,relative viability,[18]; first compound 0.3162 µM,0.387
same,relative viability,[19]; first compound 0.01 µM,0.527
same,relative viability,[19]; first compound 0.03162 µM,0.639
same,relative viability,[19]; first compound 0.3162 µM,0.653
same,relative viability,[20]; first compound 0.01 µM,0.477
same,relative viability,[20]; first compound 0.03162 µM,0.497
same,relative viability,[20]; first compound 0.3162 µM,0.561
same,relative viability,[21]; first compound 0.01 µM,0.342
same,relative viability,[21]; first compound 0.03162 µM,0.353
same,relative viability,[21]; first compound 0.3162 µM,0.319
same,relative viability,[22]; first compound 0.01 µM,0.192
same,relative viability,[22]; first compound 0.03162 µM,0.195
same,relative viability,[22]; first compound 0.3162 µM,0.195
same,relative viability,[23]; first compound 0.01 µM,0.292
same,relative viability,[23]; first compound 0.03162 µM,0.386
same,relative viability,[23]; first compound 0.3162 µM,0.294

# — the supplement of paper PMC10307832
